The record followed here is patent publication US7504384B2 (priority 2000, dated 2009).

Assay [1] deals with OVA-sensitized asthmatic rats. The experiment in a line: OVA-induced broncho-constriction (Penh) in asthmatic rats. In kind it is in vivo, Brown Norway rats. The method, then:
Subjects: Inbred Brown Norway male rats (4 weeks old) obtained from Harlan, USA, were used in this study. The Hebrew University Animal Welfare Committee approved all protocols.
In mode 1, all groups (5 rats in each) were treated and challenged as described above on day 14, 16, 18 and 20, and pulmonary function (Penh) was assessed on day 20 before and 5 min after challenge (EAR).
In mode 2, each group (10 rats in each) were treated and challenged from day 14, every other day, until day 45. Pulmonary function (Penh) was assessed on day 20 before and 5 min and 8 h after challenge, corresponding to early and late asthmatic reaction (EAR and LAR, respectively).
Assessment of broncho-constriction: Unrestrained conscious rats were placed in a whole-body plethysmograph (Buxco Electronics Inc., Troy, N.Y., USA) connected to a pneumotach (EMKA Technologies, Type 0000) at one end, and to a 10 ml bottle at the other end. The pneumotach was connected to a preamplifier (model MAX2270, Buxco Electronics). Analogue signals from the amplifier were converted to a digital signal by an AD card (LPM-16 National Instruments, Austin, Tex., USA). Broncho-constriction measures were expressed as the enhanced pause (Penh). Penh=(PEF/PIF)*((Te−Tr)/Tr), where PEF=Peak Expiratory Flow, PIF=Peak Inspiratory Flow, Te=Expiratory Time, Tr=Relaxation Time=time of the pressure decay to 36% of total box pressure during expiration.

Assay [2] has as its system cysteinyl leukotrienes (LTC4, LTD4 and LTE4). The experiment in a line: Cysteinyl leukotriene level in BAL of OVA-induced asthmatic rats.
For assay [3], the system named is Punta Toro virus. In kind it is cell-based, strain Adames.
For assay [4], the system named is Punta Toro virus. The format is cell-based, strain Adames. The source holds these as a separate data set.
Assay [5] has as its system Respiratory syncytial virus. In kind it is cell-based, strain A2.
The subject of assay [6] is Respiratory syncytial virus. The format is cell-based, strain A2. This is another data set of the same source.
Assay [7] deals with Influenza A (H1N1 strain) virus. The format is cell-based, Influenza type A, A/New Caledonia/20/99 (H1N1).
For assay [8] the test system is unchanged. In kind it is cell-based, Influenza type A, A/New Caledonia/20/99 (H1N1). Particulars: high concentration, Neutral Red Uptake Assay.
The subject of assay [9] is Influenza A (H3N2 strain) virus. The format is cell-based, Influenza type A, A/Panama/2007/99 (H3N2).
The test system is the same in assay [10]. In kind it is cell-based, Influenza type A, A/Panama/2007/99 (H3N2). The conditions noted are these: high concentration, Neutral Red Uptake Assay.
Assay [11] deals with Influenza B virus. In kind it is cell-based, Influenza type B, B/Hong Kong/330/02. The conditions noted are these: high concentration; Visual Observation Assay; Influenza B.
Assay [12] relates to Influenza B virus. In kind it is cell-based, Influenza type B, B/Hong Kong/330/02. The conditions noted are these: high concentration, Neutral Red Uptake Assay.
Assay [13] concerns Madin Darby canine kidney (MDCK) cells. The experiment in a line: Cytotoxicity assay, visual observation, uninfected cells. The format is cell-based. Particulars: high concentration. The method, then: Uninfected cells were treated with each concentration of test compound in duplicate and run in parallel with the infected, treated wells in the CPE inhibition tests described above. The toxicity control cells (uninfected and treated) were examined under a light microscope for changes in cell appearance compared to control cells (uninfected, untreated) on the same plate as described above. The 50% cell inhibitory (cytotoxic) concentrations (IC50) were calculated by regression analysis.

Assay [14] has as its system Guinea pig tracheal rings. Description: Inhibition of tracheal ring contraction. The conditions noted are these: stimulant Histamine (20 μM); Lipid-conjugate 15 μM. The method, then: A muscle preparation (tracheal rings) was isolated from rats (Experiments 3.1-3.3) and from guinea pigs (Experiments 3.4-3.5). Muscle contraction was measured by attachment of the muscle to a pressure transducer, which works much like a spring. Administration of asthmatogenic substances such as endothelin-1 (ET) and acetylcholine (AcCh) induces muscle contraction. Endothelins are released upon vascular endothelial injury, and they activate macrophages and act as strong chemo-attractants for circulating monocytes. Endothelins affect vascular smooth muscle fibroblast proliferation; help regulate vascular, airway, and intestinal smooth muscle tone; increase the activity of bone alkaline phosphatase; stimulate release of atrial natriuretic peptide (ANP) from atrial cardiocytes; inhibit the release of renin from glomeruli and modulate norepinephrine at sympathetic nerve termini. Opposing vasomotor effects are regulated through the binding of distinct endothelin receptors for vasoconstriction and vasodilation. Endothelins have been linked to atherosclerosis and various cardiovascular disease states. ET-1 is important in congestive heart failure, renal failure, pulmonary hypertension, hyperlipidemia and metastatic prostate cancer. On the other hand, AcCh is one of the three main receptors on the bronchi of the lungs, which are basically tubes with muscular walls. Stimulation of bronchial AcCh receptor induces muscle contraction and decreased airflow through the bronchi. Thus, ET and AcCh were used to experimentally induce muscle contraction in the lungs as a model of obstructive respiratory disorders.
Experiment 3.4: Guinea pig tracheal rings (in a linear array), immersed in a ringer bath, were connected to an apparatus measuring the length of the ring chain. […] Human airways have both Histamine (H)-1 and H2 receptors. H1 receptors, which mediate bronchoconstriction, predominate. Histamine application in experimental models produces signs and symptoms of asthma, such as narrowing of the airways, mucus secretion, wheezing, and coughing.

Several values for one entry are separate records, joined by “and”; a condition that tells them apart may be missing. Equal entries are not always repeated. Where two headings read alike, the source gives them in different places.

As to “dipalmitoyl-PE conjugated to HA [Compound XXII]”, in assay [1] (aerosol inhalation, 5 min after challenge, compared with Naïve or Dx-treated groups, p<0.01 vs Asthmatic), the “broncho-constriction (percent change of Penh), early asthmatic reaction (EAR)” value is “no significant difference”. Further, the “broncho-constriction (percent change of Penh), late asthmatic reaction (LAR)” value in assay [1] (aerosol inhalation, 8 h after challenge, compared with Naïve or Dx-treated groups, p<0.01 vs Asthmatic) is “no significant difference”. In [1] (already asthmatic rats, nebulized 1 mg/ml for 5 minutes, 30 minutes before challenge), the “allergen-induced broncho-constriction (Penh), inhaled before OVA challenge” value was “effective in preventing allergen-induced broncho-constriction”. In addition, the “broncho-constriction (Penh), inhaled after OVA challenge” value in [1] (asthmatic rats, nebulized 1 mg/ml for 5 minutes, thirty minutes after challenge) is reported as “reverse broncho-constriction”. Moreover, the “CysLT levels in BAL” value in assay [2] (SC administration, compared with Naive rats) is “no significant difference”; in assay [2] (aerosol inhalation, compared with Naïve rats, P<0.01 vs Asthmatic) it was “no significant difference”.

Usually EC50 stands for the concentration giving half of the maximal effect. Higher therefore signals lower potency in that assay. The IC50 is the concentration at which inhibition is half-maximal. Higher therefore signals a need for much substance. Take “dipalmitoyl-phosphatidyl-ethanolamine conjugated to heparin [Compound XXIV]”: the “SI (IC50/EC50)” value in assay [3] was 0; in assay [4], 0; in [7], 20 and 11; in assay [9], 2.9 and 2. For the same substance, the 50% effective concentration (EC50) in [3] (low concentrations, Visual Observation Assay, Punta Toro A) was over 100 µg/mL; in [4] (low concentrations, Neutral Red Uptake Assay, Punta Toro A), over 100 µg/mL; in assay [5], 4 µg/mL; in [6] (low concentrations, Neutral Red Uptake Assay, Respiratory Syncytial A) it was over 100 µg/mL; in assay [7] (high concentration, Visual Observation Assay, Influenza A (H1N1 strain)) it was 400 µg/mL; in assay [8] it was 1000 µg/mL. Moreover, the EC50 in [9] (high concentration, Visual Observation Assay, Influenza A (H3N2 strain)) was 200 µg/mL; in assay [10], 900 µg/mL; in assay [11], 350 µg/mL; in [12] it was 450 µg/mL. The “virus inhibitory effect against Punta Toro virus” value in assay [3] (lower range of doses, at the concentrations tested) was “did not display a virus inhibitory effect”. Besides, in assay [6] (lower range of doses), the “activity vs RSV by neutral red assay” value is “not active”. In addition, the IC50 turned out to be 35 µg/mL in assay [13] (listed as Influenza A (H1N1 strain)), 100 µg/mL in assay [13] (listed as Influenza A (H3N2 strain)) and 90 µg/mL in [13] (listed as Influenza B). Further, in [14], the “% Inhibition of tracheal ring contraction” value is 56 ± 0.05%.
